The results in this text go back to patent US8309718B2, “4-pyrazolyl-N-arylpyrimidin-2-amines and 4-pyrazolyl-N-heteroarylpyrimidin-2-amines as janus kinase inhibitors” (Incyte Corporation, priority 2007, dated 2012).

The experiment has as its target T1, human JAK2 (Homo sapiens, UniProt O60674).
T1 construct: JAK2 (a.a. 828-1132); His tag (N); made in house; host or cells: insect cells (baculovirus)
In words: In vitro JAK kinase assay (HTRF, phosphorylation of biotinylated peptide). Particulars: catalytic domain a.a. 828-1132, 30 μM ATP, 500 nM peptide, room temperature 1 hr; read-out: JAK-2 IC50. Format: biochemical. Here is the method: Compounds herein were tested for inhibitory activity of JAK targets according to the following in vitro assay described in Park et al, Analytical Biochemistry 1999, 269, 94-104. The catalytic domains of human JAK1 (a.a. 837-1142), JAK2 (a.a. 828-1132) and JAK3 (a.a. 781-1124) with an N-terminal His tag were expressed using baculovirus in insect cells and purified. The catalytic activity of JAK1, JAK2 or JAK3 was assayed by measuring the phosphorylation of a biotinylated peptide. The phosphorylated peptide was detected by homogenous time resolved fluorescence (HTRF). IC50s of compounds were measured for each kinase in the reactions that contain the enzyme, ATP and 500 nM peptide in 50 mM Tris (pH 7.8) buffer with 100 mM NaCl, 5 mM DTT, and 0.1 mg/mL (0.01%) BSA. The ATP concentration in the reactions was 90 μM for JAK1, 30 μM for Jak2 and 3 μM for JAK3. Reactions were carried out at room temperature for 1 hr and then stopped with 20 μL 45 mM EDTA, 300 nM SA-APC, 6 nM Eu-Py20 in assay buffer (Perkin Elmer, Boston, Mass.). Binding to the Europium labeled antibody took place for 40 minutes and HTRF signal was measured on a Fusion plate reader (Perkin Elmer, Boston, Mass.). Certain of the above compounds were tested according to this assay.
(In TR-FRET formats the signal depends on donor and acceptor labels being close together.)

For orientation: IC50 means the point on the concentration scale where inhibition reaches its midpoint.

A value given as a limit tells only on which side of the number the result lay.

T1 sequence (O60674 828-1132): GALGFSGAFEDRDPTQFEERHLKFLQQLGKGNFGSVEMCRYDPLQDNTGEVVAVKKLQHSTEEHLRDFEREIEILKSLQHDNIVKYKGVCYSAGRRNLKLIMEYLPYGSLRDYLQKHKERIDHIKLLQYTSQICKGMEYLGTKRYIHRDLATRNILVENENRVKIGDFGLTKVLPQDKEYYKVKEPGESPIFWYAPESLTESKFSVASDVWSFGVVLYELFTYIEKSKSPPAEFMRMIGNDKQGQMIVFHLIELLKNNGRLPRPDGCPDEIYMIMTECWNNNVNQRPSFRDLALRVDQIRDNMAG

In the case of `N#CCC(C1CCCC1)n1cc(-c2ccnc(Nc3ccc(C(=O)N4C5CC6CC4CC(C5)O6)cc3)n2)cn1` (racemic) [Example 216, 3-cyclopentyl-3-(4-(2-(4-(2-oxa-6-azatricyclo[3.3.1.1(3,7)]dec-6-ylcarbonyl)phenyl)aminopyrimidin-4-yl)-1H-pyrazol-1-yl)propanenitrile], the IC50 was under 100 nM.

On to `COc1cnc(Nc2cccc(C(=O)N3CCC3)c2)nc1-c1cnn(C(CC#N)C2CC2)c1` (racemic) [Example 334, 3-[4-(2-{[3-(azetidin-1-ylcarbonyl)phenyl]amino}-5-methoxypyrimidin-4-yl)-1H-pyrazol-1-yl]-3-cyclopropylpropanenitrile], for which the IC50 was under 100 nM. With `Cc1cc(CNC(=O)c2cccc(Nc3nccc(-c4cnn(C(CC#N)C5CCCC5)c4)n3)c2)no1` (racemic) [Example 148, 3-(4-(1-(2-cyano-1-cyclopentylethyl)-1H-pyrazol-4-yl)pyrimidin-2-ylamino)-N-((5-methylisoxazol-3-yl)methyl)benzamide], the IC50 is under 100 nM. On to `N#CCC(C1CC1)n1cc(-c2ccnc(Nc3ccc(N4CCCCC4=O)cc3)n2)cn1` (racemic) [Example 179, 3-cyclopropyl-3-(4-(2-(4-(2-oxopiperidin-1-yl)phenylamino)pyrimidin-4-yl)-1H-pyrazol-1-yl)propanenitrile], for which the IC50 is under 100 nM.

For the compound `CC(=O)N[C@@H]1CCN(C(=O)c2cccc(Nc3nccc(-c4cnn(C(CC#N)C5CCCC5)c4)n3)c2)C1` (mixture of isomers) [Example 158, N-((3R)-1-(3-(4-(1-(2-cyano-1-cyclopentylethyl)-1H-pyrazol-4-yl)pyrimidin-2-ylamino)benzoyl)pyrrolidin-3-yl)acetamide], the IC50 was under 100 nM. On to `CCS(=O)(=O)N1CC(CC#N)(n2cc(-c3ccnc(Nc4ccc(C(=O)N5CC[C@@H](C#N)C5)cc4)n3)cn2)C1` [Example 276, (R)-1-(4-(4-(1-(3-(cyanomethyl)-1-(ethylsulfonyl)azetidin-3-yl)-1H-pyrazol-4-yl)pyrimidin-2-ylamino)benzoyl)pyrrolidine-3-carbonitrile], for which the IC50 is under 100 nM.

Regarding `CCS(=O)(=O)N1CC(CC#N)(n2cc(-c3ccnc(Nc4ccc(C(=O)N5CCC(O)CC5)cc4)n3)cn2)C1` [Example 256, 2-(1-(ethylsulfonyl)-3-(4-(2-(4-(4-hydroxypiperidine-1-carbonyl)phenylamino)pyrimidin-4-yl)-1H-pyrazol-1-yl)azetidin-3-yl)acetonitrile], the IC50 is under 100 nM. The figure for `CCS(=O)(=O)N1CCC(CC(CC#N)n2cc(-c3nc(Nc4ccc(-n5cccn5)cc4)ncc3C)cn2)CC1` (racemic) [Example 49, 3-(4-(2-(4-(1H-pyrazol-1-yl)phenylamino)-5-methylpyrimidin-4-yl)-1H-pyrazol-1-yl)-4-(1-(ethylsulfonyl)piperidin-4-yl)butanenitrile] is under 100 nM; for `Cn1ccc(S(=O)(=O)Nc2ccc(Nc3nccc(-c4cnn(C(CC#N)C5CCCC5)c4)n3)cc2)n1` (racemic) [Example 190, N-(4-(4-(1-(2-cyano-1-cyclopentylethyl)-1H-pyrazol-4-yl)pyrimidin-2-ylamino)phenyl)-1-methyl-1H-pyrazole-3-sulfonamide] it is under 100 nM.

On to `CCS(=O)(=O)N1CCC(CC(CC#N)n2cc(-c3nc(Nc4ccc(C(=O)N(C)C)cc4)ncc3C)cn2)CC1` (racemic) [Example 52, 4-(4-(1-(1-cyano-3-(1-(ethylsulfonyl)piperidin-4-yl)propan-2-yl)-1H-pyrazol-4-yl)-5-methylpyrimidin-2-ylamino)-N,N-dimethylbenzamide], for which the IC50 is under 100 nM. Consider `N#CCC(C1CCCC1)n1cc(-c2ccnc(Nc3ccc(NC(=O)CN4CCOCC4)cc3)n2)cn1` (racemic) [Example 207, N-(4-(4-(1-(2-cyano-1-cyclopentylethyl)-1H-pyrazol-4-yl)pyrimidin-2-ylamino)phenyl)-2-morpholinoacetamide], for which the IC50 is under 100 nM. As to `CCS(=O)(=O)N1CC(CC#N)(n2cc(-c3ccnc(Nc4ccc(C(=O)N5CCC(N(C)C)C5)cc4)n3)cn2)C1` (racemic) [Example 282, 2-(3-(4-(2-(4-(3-(dimethylamino)pyrrolidine-1-carbonyl)phenylamino)pyrimidin-4-yl)-1H-pyrazol-1-yl)-1-(ethylsulfonyl)azetidin-3-yl)acetonitrile], the IC50 is under 100 nM. Take `N#CCC(C1CCCC1)n1cc(-c2ccnc(Nc3ccc(C(=O)N4CCC4)cc3)n2)cn1` (racemic) [Example 128, 3-(4-(2-(4-(azetidine-1-carbonyl)phenylamino)pyrimidin-4-yl)-1H-pyrazol-1-yl)-3-cyclopentylpropanenitrile]: the IC50 was under 100 nM.

With `COc1cnc(Nc2ccc(C(=O)N3CCN(C)CC3)cc2)nc1-c1cnn(C(CC#N)C2CCCC2)c1` (racemic) [Example 304, 3-cyclopentyl-3-(4-(5-methoxy-2-(4-(4-methylpiperazine-1-carbonyl)phenylamino)pyrimidin-4-yl)-1H-pyrazol-1-yl)propanenitrile], the IC50 is under 100 nM. As to `Cc1cnc(Nc2ccc(C(=O)N(C)C)cc2)nc1-c1cnn(C(CC#N)CC2CCN(S(=O)(=O)c3ccn(C)n3)CC2)c1` (racemic) [Example 67, 4-(4-(1-(1-cyano-3-(1-(1-methyl-1H-pyrazol-3-ylsulfonyl)piperidin-4-yl)propan-2-yl)-1H-pyrazol-4-yl)-5-methylpyrimidin-2-ylamino)-N,N-dimethylbenzamide], the IC50 was under 100 nM. Take `N#CCC(C1CCCC1)n1cc(-c2ccnc(Nc3cccc(C(=O)N4CC[C@@H](O)C4)c3)n2)cn1` (mixture of isomers) [Example 141, 3-cyclopentyl-3-(4-(2-(3-((R)-3-hydroxypyrrolidine-1-carbonyl)phenylamino)pyrimidin-4-yl)-1H-pyrazol-1-yl)propanenitrile]: the IC50 was under 100 nM.

As to `COc1cnc(Nc2ccc(-n3cccn3)cc2)nc1-c1cnn(C(CC#N)C2CCCC2)c1` (racemic) [Example 102, 3-(4-(2-(4-(1H-pyrazol-1-yl)phenylamino)-5-methoxypyrimidin-4-yl)-1H-pyrazol-1-yl)-3-cyclopentylpropanenitrile], the IC50 is under 100 nM. For `CN(C)C(=O)c1ccc(Nc2nccc(-c3cnn(C(CC#N)C4CCCC4)c3)n2)cc1` (racemic) [Example 40, 4-(4-(1-(2-cyano-1-cyclopentylethyl)-1H-pyrazol-4-yl)pyrimidin-2-ylamino)-N,N-dimethylbenzamide], the IC50 was under 100 nM. For `CC(=O)N1CCN(C(=O)c2ccc(Nc3nccc(-c4cnn(C(CC#N)C5CCCC5)c4)n3)cc2)CC1` (racemic) [Example 224, 3-(4-(2-(4-(4-acetylpiperazine-1-carbonyl)phenylamino)pyrimidin-4-yl)-1H-pyrazol-1-yl)-3-cyclopentylpropanenitrile], the IC50 was under 100 nM. As for `CCS(=O)(=O)N1CCC(CC(CC#N)n2cc(-c3ccnc(Nc4ccc(-n5cccn5)cc4)n3)cn2)CC1` (racemic) [Example 43, 3-(4-(2-(4-(1H-pyrazol-1-yl)phenylamino)pyrimidin-4-yl)-1H-pyrazol-1-yl)-4-(1-(ethylsulfonyl)piperidin-4-yl)butanenitrile], the IC50 is under 100 nM. The value for `N#CCC(C1CCCC1)n1cc(-c2ccnc(Nc3cccc(C(=O)N4CCC(c5cccc(F)c5)C4)c3)n2)cn1` (mixture of isomers) [Example 157, 3-cyclopentyl-3-(4-(2-(3-(3-(3-fluorophenyl)pyrrolidine-1-carbonyl)phenylamino)pyrimidin-4-yl)-1H-pyrazol-1-yl)propanenitrile] was under 100 nM; that for `CCS(=O)(=O)N1CC(CC#N)(n2cc(-c3ccnc(Nc4ccc(C(=O)N5CCN(C)CC5)cc4)n3)cn2)C1` [Example 279, 2-(1-(ethylsulfonyl)-3-(4-(2-(4-(4-methylpiperazine-1-carbonyl)phenylamino)pyrimidin-4-yl)-1H-pyrazol-1-yl)azetidin-3-yl)acetonitrile] was under 100 nM; that for `N#CCC(C1CC1)n1cc(-c2ccnc(Nc3ccc(C(=O)N4CC[C@@H](C#N)C4)cc3)n2)cn1` (mixture of isomers) [Example 264, (3R)-1-(4-(4-(1-(2-cyano-1-cyclopropylethyl)-1H-pyrazol-4-yl)pyrimidin-2-ylamino)benzoyl)pyrrolidine-3-carbonitrile] was under 100 nM. Turning to `Cc1nccc(-c2cccc(Nc3nccc(-c4cnn(C(CC#N)C5CCCC5)c4)n3)c2)n1` (racemic) [Example 99, 3-cyclopentyl-3-(4-(2-(3-(2-methylpyrimidin-4-yl)phenylamino)pyrimidin-4-yl)-1H-pyrazol-1-yl)propanenitrile], the IC50 was under 100 nM.

In the case of `CNC(=O)c1cccc(Nc2nccc(-c3cnn(C(CC#N)C4CCCC4)c3)n2)c1` (racemic) [Example 109, 3-(4-(1-(2-cyano-1-cyclopentylethyl)-1H-pyrazol-4-yl)pyrimidin-2-ylamino)-N-methylbenzamide], the IC50 is under 100 nM. In the case of `N#CCC(C1CCCC1)n1cc(-c2ccnc(Nc3cccc(-c4cnco4)c3)n2)cn1` (racemic) [Example 37, 3-cyclopentyl-3-(4-(2-(3-(oxazol-5-yl)phenylamino)pyrimidin-4-yl)-1H-pyrazol-1-yl)propanenitrile], the IC50 was under 100 nM.
